Experiments:
[1] = system: human lymphocytes (peripheral blood mononuclear cells); experiment: Phytohemagglutinin (PHA) induced lymphocyte proliferation; assay type: cell-based
Procedure: (§1) Peripheral blood mononuclear cells were isolated from heparinized peripheral blood of normal healthy donors as described in Sharma, B. and S. Gupta, "Antigen-specific primary cytotoxic T lymphocyte response in acquired immune deficiency syndrome (AIDS) and AIDS related complex", Clin. Exp. Immunol., 62:296, 1985. Briefly, blood was diluted 1:1 with Hanks balanced salt solution (HBSS). Peripheral blood mononuclear cells were separated on a Ficoll-Hypaque gradient. The peripheral blood mononuclear cells recovered from the interface were washed three times with HBSS and resuspended in RPMI-1640 containing 100 U/ml penicillin, 100 μg/ml streptomycin 2mM L-glutamine (GIBCO, Grand Island, N.Y.), and 10% heat-inactivated pooled A serum (Irvine Scientific, Irvine, Calif.), hereafter referred as complete medium (CM).
The ability of the compound 6-amino-(2-deoxy-α-D-erythropentofuranosyl)-imidazo[4,5,-C]pyridin-4-one to modulate lymphocyte response to plant mitogens was determined by the modified procedure of Sharma, B., O. Kohashi, M. R. Mickey, and P. T. Terasaki, "Effect of water soluble adjuvants on in vitro lymphocyte immunization", Cancer Res. 35:666, 1975. Peripheral blood mononuclear cells were cultured for 72-96 hr with phytohemagglutinin (Difco, Detroit, Mich.), Concanavalin A (Calbiochem, Calif.) or Pokeweed mitogen (GIBCO, Grand Island, N.Y.) in the presence and absence of 6-amino-(2-deoxy-α-D-erythro-pentofuranosyl)-imidazo[4,5,-C]pyridin- 4-one. The culture were set up in quadruplicate and pulsed with [^3 H]-thymidine for 16 hr and the [^3 H] thymidine incorporation was determined.
Lymphocytes from different donors where incubated with various concentration of phytohemagglutinin in absence and presence of 6-amino-(2-deoxy-α-D-erythro-pentofuranoxyl)imidazo-[4,5,-C]pyridin- 4-one.
[…] Lymphocyte proliferation was determined by ^3 H-thymidine incorporation.

[2] = system: human mixed lymphocyte culture; experiment: Mixed lymphocyte response / culture (alloantigens); assay type: cell-based
Procedure: as §1
Peripheral blood mononuclear cells (1×10^5 /0.2 ml/well) from donor-A were cultured together with different numbers of peripheral blood mononuclear cells ([…]) of peripheral blood mononuclear cells from the other donor for 96 hr as previously described above for the lymphocyte response to plant mitogens. Cultures were pulsed with [^3 H]-thymidinefor additional 16 hrs.

[3] = donor 2, PHA 0.25 mg/0.2 ml, compound (0.1)
[4] = donor 2, PHA 1.0 mg/0.2 ml, compound (0.05)
[5] = donor 2, PHA 4.0 mg/0.2 ml, compound (0.038)
[6] = donor 3, PHA 0.25 mg/0.2 ml, compound (0.4)
[7] = donor 3, PHA 1.0 mg/0.2 ml, compound (0.2)
[8] = donor 3, PHA 1.0 mg/0.2 ml, compound (0.4)
[9] = donor 3, PHA 4.0 mg/0.2 ml, compound (0.2)
[10] = donor 3, PHA 4.0 mg/0.2 ml, compound (0.4)
[11] = donor 4, PHA 0.25 mg/0.2 ml, compound (0.4)
[12] = donor 4, PHA 1.0 mg/0.2 ml, compound (0.05)
[13] = donor 4, PHA 1.0 mg/0.2 ml, compound (0.4)
[14] = donor 4, PHA 4.0 mg/0.2 ml, compound (0.4)
[15] = donor 5, PHA 0.5 mg/0.2 ml, compound (0.05)
[16] = donor 5, PHA 1.0 mg/0.2 ml, compound (0.2)
[17] = donor 5, PHA 4.0 mg/0.2 ml, compound (0.2)
[18] = donor 6, PHA 0.5 mg/0.2 ml, compound (0.05)
[19] = donor 7, PHA 0.125 mg/0.2 ml, compound (0.4)
[20] = donor 7, PHA 0.125 mg/0.2 ml, compound (1.0)

Nc1cc2c(ncn2[C@@H]2C[C@H](O)[C@@H](CO)O2)c(O)n1 [Test Compound, 6-amino-1-(2-deoxy-α-D-erythro-pentofuranosyl)imidazo[4,5-C]-pyridin-4-one]
activity in augmenting phytohemagglutinin response compared with interleukin-2 ([1]; Table III): equals that of interleukin-2 | potentiation of lymphocyte response to phytohemagglutinin ([1]; all the 5 donors examined): striking potentiation | 3H-thymidine incorporation in PHA-stimulated cultures [1, 3]: 56362 ± 8650 Counts per minute | % Potentiation [1, 3]: 294% | 3H-thymidine incorporation in PHA-stimulated cultures [1, 4]: 110155 ± 5101 Counts per minute | % Potentiation [1, 4]: 41% | 3H-thymidine incorporation in PHA-stimulated cultures [1, 5]: 127102 ± 3001 Counts per minute | % Potentiation [1, 5]: 53% | 3H-thymidine incorporation in PHA-stimulated cultures [1, 6]: 34646 ± 6344 Counts per minute | % Potentiation [1, 6]: 1074% | 3H-thymidine incorporation in PHA-stimulated cultures [1, 7]: 77757 ± 18381 Counts per minute | % Potentiation [1, 7]: 295% | 3H-thymidine incorporation in PHA-stimulated cultures [1, 8]: 61653 ± 12029 Counts per minute | % Potentiation [1, 8]: 213% | 3H-thymidine incorporation in PHA-stimulated cultures [1, 9]: 88518 ± 7387 Counts per minute | % Potentiation [1, 9]: 144% | 3H-thymidine incorporation in PHA-stimulated cultures [1, 10]: 97950 ± 6240 Counts per minute | % Potentiation [1, 10]: 170% | 3H-thymidine incorporation in PHA-stimulated cultures [1, 11]: 28765 ± 4475 Counts per minute | % Potentiation [1, 11]: 1171% | 3H-thymidine incorporation in PHA-stimulated cultures [1, 12]: 50131 ± 4674 Counts per minute | % Potentiation [1, 12]: 88% | 3H-thymidine incorporation in PHA-stimulated cultures [1, 13]: 91669 ± 7462 Counts per minute | % Potentiation [1, 13]: 244% | 3H-thymidine incorporation in PHA-stimulated cultures [1, 14]: 119811 ± 2608 Counts per minute | % Potentiation [1, 14]: 91% | 3H-thymidine incorporation in PHA-stimulated cultures [1, 15]: 66109 ± 2263 Counts per minute | % Potentiation [1, 15]: 71% | 3H-thymidine incorporation in PHA-stimulated cultures [1, 16]: 79690 ± 3113 Counts per minute | % Potentiation [1, 16]: 79% | 3H-thymidine incorporation in PHA-stimulated cultures [1, 17]: 93966 ± 6505 Counts per minute | % Potentiation [1, 17]: 103% | 3H-thymidine incorporation in PHA-stimulated cultures [1, 18]: 16156 ± 3600 Counts per minute | % Potentiation [1, 18]: 110% | 3H-thymidine incorporation in PHA-stimulated cultures [1, 19]: 25657 ± 2488 Counts per minute | % Potentiation [1, 19]: 353% | 3H-thymidine incorporation in PHA-stimulated cultures [1, 20]: 23582 ± 3903 Counts per minute | % Potentiation [1, 20]: 317% | effect on mixed lymphocyte response ([2]; 2-way mixed lymphocyte culture): markedly increased the mixed lymphocyte response in a dose dependent manner in most of the cases | maximal increase of mixed lymphocyte response ([2]; 2-way mixed lymphocyte culture): 91% | 3H-thymidine incorporation in MLC ([2]; A + B (0.5 × 10^5), 0.0125 mM): 14814 ± 929 CPM | 3H-thymidine incorporation in MLC ([2]; A + B (0.5 × 10^5), 0.025 mM): 18978 ± 1048 CPM | 3H-thymidine incorporation in MLC ([2]; A + B (0.5 × 10^5), 0.05 mM): 21399 ± 1759 CPM | 3H-thymidine incorporation in MLC ([2]; A + B (0.5 × 10^5), 0.2 mM): 22448 ± 1609 CPM | 3H-thymidine incorporation in MLC ([2]; A + B (0.5 × 10^5), 0.4 mM): 21593 ± 3007 CPM | 3H-thymidine incorporation in MLC ([2]; A + B (1 × 10^5), 0.0125 mM): 26858 ± 2392 CPM | 3H-thymidine incorporation in MLC ([2]; A + B (1 × 10^5), 0.025 mM): 21794 ± 7136 CPM | 3H-thymidine incorporation in MLC ([2]; A + B (1 × 10^5), 0.05 mM): 33532 ± 1732 CPM | 3H-thymidine incorporation in MLC ([2]; A + B (1 × 10^5), 0.2 mM): 30790 ± 1912 CPM | 3H-thymidine incorporation in MLC ([2]; A + B (1 × 10^5), 0.4 mM): 30261 ± 1835 CPM | 3H-thymidine incorporation in MLC ([2]; A + B (2 × 10^5), 0.0125 mM): 18608 ± 2511 CPM | 3H-thymidine incorporation in MLC ([2]; A + B (2 × 10^5), 0.025 mM): 23548 ± 4439 CPM | 3H-thymidine incorporation in MLC ([2]; A + B (2 × 10^5), 0.05 mM): 25299 ± 4479 CPM
